PMC10066365, “Nemacol is a small molecule inhibitor of C. elegans vesicular acetylcholine transporter with anthelmintic potential” (Nature Communications, 2023)
Several values for one entry are separate records, joined by “and”; a condition that tells them apart may be missing. Identical values can stand only once. Like-named read-outs stand apart in the source and are kept apart here.

Columns and labels:
Pristionchus pacificus = Pristionchus pacificus motor disruption dose-response on solid media, 1 h; conditions: for mean % any phene (coiled, jerky-Unc or paralyzed): Pristionchus pacificus young adults, mean of three biological replicates; for EC50: Pristionchus pacificus, 1 h, read-out: P. pacificus motor disruption EC50
C. elegans = C. elegans motor phenotype scoring on solid media (Punc/jerky-unc, coiled, paralyzed), wild-type young adults; type: in vivo, Caenorhabditis elegans; conditions: for any phene, mean % fraction of young adults exhibiting any phenotype (coiled, jerky-Unc or paralyzed) / atypical locomotion (number of animals) / coiled (number of animals) / no phene (number of animals) / paralyzed (number of animals): one hour; for any phene, mean % fraction of young adults exhibiting any phenotype (coiled, jerky-Unc or paralyzed): mean of three biological replicates; for atypical locomotion (number of animals) / coiled (number of animals) / no phene (number of animals) / paralyzed (number of animals): young adults, 20 animals per trial, single replicate counts; for EC50: Caenorhabditis elegans, read-out: C. elegans - motor disruption EC50
[1] = system: Dirofilaria immitis L3/L4; assay: Dirofilaria immitis L3/L4 motility assay (DiroImager, 72 h); conditions: Dirofilaria immitis L4
[2] = system: Dirofilaria immitis microfilariae; assay: Dirofilaria immitis microfilariae immobility assay (DiroImager, 72 h); conditions: Dirofilaria immitis microfilariae
Protocol: We conducted experiments with the Missouri isolate of Dirofilaria immitis in two labs. In the first set of experiments, shown as part of Fig. 3c, D. immitis microfilariae and larval stage 3 (L3) worms were assayed in the laboratories of Bayer Animal Health GmbH (Monheim, Germany). For microfilariae immobility assays, approximately 250 freshly purified microfilariae were cultured in single wells of a 96-well microtiter plate containing supplemented RPMI 1640 medium[68],[69]. […] Microfilariae exposed to medium substituted with 1% DMSO were used as negative controls. Motility of microfilariae was evaluated after 72 h of drug exposure using an image-based approach—DiroImager, developed by Bayer Technology Services. As described in detail in refs. [68],[69], the DiroImager is an automated high-throughput platform that allows for high-resolution optical imaging of an entire 96-well microtiter plate.

[3] = conc 3.75, observed at one hour
[4] = any motor phenotype after 1 h on solid media, ± 95% CI

SMILES | EC50 (Pristionchus pacificus) [µM] | any phene, mean % fraction of young adults exhibiting any phenotype (coiled, jerky-Unc or paralyzed) (C. elegans; 3.75uM) [%] | atypical locomotion (number of animals) (C. elegans; 3.75uM) | coiled (number of animals) (C. elegans; 3.75uM) | no phene (number of animals) (C. elegans; 3.75uM) | paralyzed (number of animals) (C. elegans; 3.75uM) | any phene, mean % fraction of young adults exhibiting any phenotype (coiled, jerky-Unc or paralyzed) (C. elegans; 15uM) [%] | atypical locomotion (number of animals) (C. elegans; 15uM) | coiled (number of animals) (C. elegans; 15uM) | no phene (number of animals) (C. elegans; 15uM) | paralyzed (number of animals) (C. elegans; 15uM) | any phene, mean % fraction of young adults exhibiting any phenotype (coiled, jerky-Unc or paralyzed) (C. elegans; 60uM) [%] | atypical locomotion (number of animals) (C. elegans; 60uM) | coiled (number of animals) (C. elegans; 60uM) | no phene (number of animals) (C. elegans; 60uM) | paralyzed (number of animals) (C. elegans; 60uM) | % effect (motility), DIROIM L4 ([1]; 2 µM) [%] | % effect (motility), DIROIM L4 ([1]; 10 µM) [%] | % effect (motility), DIROIM L4 ([1]; 50 µM) [%] | % effect (motility), DIROIM MF ([2]; 0.016 µM) [%] | other results
c1ccc(N2CCN(CC3CCCCC3)CC2)cc1 [Nemacol-12] | 17.3 ± 6.3 | 16.1842 | 0 and 7 and 11 | 0 and 1 | 20 and 11 and 9 | 0 | 39.1667 | 4 and 2 and 0 and 1 and 17 and 10 | 0 and 3 and 8 | 16 and 18 and 20 and 19 and 0 | 0 and 2 | 84.1667 | 11 and 14 and 7 and 10 and 2 and 1 | 3 and 4 and 5 and 6 and 14 and 19 | 6 and 2 and 7 and 4 and 0 | 0 and 1 and 4 | 6 | 0 | 5 | 0 | mean % any phene (coiled, jerky-Unc or paralyzed) (Pristionchus pacificus; [3]): 0%; mean % any phene (coiled, jerky-Unc or paralyzed) (Pristionchus pacificus; conc 15, observed at one hour): 38.3333%; mean % any phene (coiled, jerky-Unc or paralyzed) (Pristionchus pacificus; conc 60, observed at one hour): 98.3333%; EC50 (C. elegans; 1 h): 18.8 ± 17.5 µM; % effect (motility), DIROIM MF ([2]; 0.08 µM): 0%; % effect (motility), DIROIM MF ([2]; 0.4 µM): 0%; % effect (motility), DIROIM MF ([2]; 2 µM): 0%; % effect (motility), DIROIM MF ([2]; 10 µM): 0%
O=[N+]([O-])c1ccc(N2CCN(c3ccccc3O)CC2)cc1 [Nemacol-13] | > 60 | 0.8333 | 0 and 1 | 0 | 20 and 19 | 0 | 2.5 | 0 and 2 and 1 | 0 | 20 and 18 and 19 | 0 | 20 | 0 and 11 and 13 | 0 | 20 and 9 and 7 | 0 | 0 | 0 | 0 | 0 | mean % any phene (coiled, jerky-Unc or paralyzed) (Pristionchus pacificus; [3]): 0%; mean % any phene (coiled, jerky-Unc or paralyzed) (Pristionchus pacificus; conc 15, observed at one hour): 0%; mean % any phene (coiled, jerky-Unc or paralyzed) (Pristionchus pacificus; conc 60, observed at one hour): 9.167%; EC50 (C. elegans; [4]): > 60 µM; % effect (motility), DIROIM MF ([2]; 0.08 µM): 0%; % effect (motility), DIROIM MF ([2]; 0.4 µM): 0%; % effect (motility), DIROIM MF ([2]; 2 µM): 0%; % effect (motility), DIROIM MF ([2]; 10 µM): 0%
O=[N+]([O-])c1cccc(CN2CCN(C3CCCCC3)CC2)c1 [Nemacol-14] | > 60 | 0.8333 | 0 | 0 | 20 and 19 | 0 and 1 | 0 | 0 | 0 | 20 | 0 | 6.667 | 0 and 2 | 0 and 2 | 20 and 18 and 16 | 0 | 0 | 5 | 5 | 0 | mean % any phene (coiled, jerky-Unc or paralyzed) (Pristionchus pacificus; [3]): 0%; mean % any phene (coiled, jerky-Unc or paralyzed) (Pristionchus pacificus; conc 15, observed at one hour): 0.8333%; mean % any phene (coiled, jerky-Unc or paralyzed) (Pristionchus pacificus; conc 60, observed at one hour): 12.5%; EC50 (C. elegans; [4]): > 60 µM; % effect (motility), DIROIM MF ([2]; 0.08 µM): 0%; % effect (motility), DIROIM MF ([2]; 0.4 µM): 0%; % effect (motility), DIROIM MF ([2]; 2 µM): 0%; % effect (motility), DIROIM MF ([2]; 10 µM): 0%
O=[N+]([O-])c1ccc(CN2CCN(C3CCCC3)CC2)cc1 [Nemacol-15] | > 60 | 0 | 0 | 0 | 20 | 0 | 2.5 | 0 and 1 and 2 | 0 | 20 and 19 and 18 | 0 | 23.3333 | 2 and 1 and 4 and 5 and 9 | 0 | 18 and 19 and 15 and 14 and 11 | 0 and 3 and 2 | 5 | 0 | 10 | 0 | EC50 (C. elegans; [4]): > 60 µM; % effect (motility), DIROIM MF ([2]; 0.08 µM): 0%; % effect (motility), DIROIM MF ([2]; 0.4 µM): 0%; % effect (motility), DIROIM MF ([2]; 2 µM): 0%; % effect (motility), DIROIM MF ([2]; 10 µM): 0%
O=C(C1CCCCC1)N1CCN(c2ccc([N+](=O)[O-])cc2)CC1 [Nemacol-16] | > 60 | 0.8333 | 0 and 1 | 0 | 20 and 19 | 0 | 0.8333 | 0 | 0 | 20 and 19 | 0 and 1 | 4.167 | 4 and 1 and 0 | 0 | 16 and 19 and 20 | 0 | 0 | 10 | 35 | 0 | mean % any phene (coiled, jerky-Unc or paralyzed) (Pristionchus pacificus; [3]): 0% and 3.333%; mean % any phene (coiled, jerky-Unc or paralyzed) (Pristionchus pacificus; conc 15, observed at one hour): 8.333% and 5%; mean % any phene (coiled, jerky-Unc or paralyzed) (Pristionchus pacificus; conc 60, observed at one hour): 36.6667%; EC50 (C. elegans; [4]): > 60 µM; % effect (motility), DIROIM MF ([2]; 0.08 µM): 0%; % effect (motility), DIROIM MF ([2]; 0.4 µM): 0%; % effect (motility), DIROIM MF ([2]; 2 µM): 0%; % effect (motility), DIROIM MF ([2]; 10 µM): 40%
